Common to all, as to type: cell-based
In assay [1] the test system is U87-MG (K-Ras wild type cell line). The assay is described as follows: Viability assay (CellTiterBlue, 72 hr) U87-MG. The following applies: Homo sapiens, U-87 MG, GI50, CellTiterBlue. On the procedure:
(§1) Viability assays were performed on exemplary compounds and Table 2 below lists exemplary results for selected compounds tested on K-Ras wild type cell lines (Ishikawa, U87-MG, HCC827, and A375) and various K-Ras mutant cell lines (Panc1-G12D; Panc10.05-G12D; HCT116-G31D). Results are expressed in μM and corresponding structures are shown in FIGS. 2A-2G and Examples 1-152, above.
(§2) Cells are counted and seeded at 1000 cells/36 ul medium/well into 384-well microplates. Cells are returned to 37° C. CO2 incubator for 18 hr. Drug is made as 200× in DMSO and diluted into medium to 10×. To each well is added 4 ul 10× drug, and plates are returned to the incubator. Final assay DMSO concentration is 0.5%. After 72 hr, 8 ul CellTiterBlue (Promega) is added to each well. After 3 hr, fluorescence (Ex550/Em590) is determined on the Victor Plate Reader (Perkin Elmer). Assay range is determined by DMSO control (100% viability) and 100 uM tamoxifen (0% viability). GI50 values are calculated using Graphpad Prism.

A further assay deals with Panc1-G12D. Nature of the assay: Viability assay (CellTiterBlue, 72 hr) Panc1. The following applies: Homo sapiens, PANC-1, GI50, CellTiterBlue, read-out: 72 hr Cell Viability Panc1 (G12D). On the procedure: as §1, §2
Another assay has as its system HCT116-G31D. The assay is described as follows: Viability assay (CellTiterBlue, 72 hr) HCT116. The following applies: Homo sapiens, HCT-116, GI50, CellTiterBlue, read-out: 72 hr Cell Viability HCT116 (G13D). The method, then:
as §1, §2

For another assay, the system named is Panc10.05-G12D. Nature of the assay: Viability assay (CellTiterBlue, 72 hr) Panc10.05. The following applies: Homo sapiens, Panc1005, GI50, CellTiterBlue, read-out: 72 hr Cell Viability Panc10.05 (G12D). On the procedure:
as §1, §2

In assay [2] the test system is Ishikawa (K-Ras wild type cell line). Nature of the assay: Viability assay (CellTiterBlue, 72 hr) Ishikawa. Particulars: Homo sapiens, GI50, CellTiterBlue. On the procedure: as §1, §2
The test system of assay [3] is HCC827 (K-Ras wild type cell line). Nature of the assay: Viability assay (CellTiterBlue, 72 hr) HCC827. The following applies: Homo sapiens, GI50, CellTiterBlue. On the procedure:
as §1, §2

The target of a further assay is T1, K-Ras G12D (Homo sapiens, UniProt P01116, G12D).
T1 construct: expressed in transfected cells; host or cells: 293H cells
T1 sequence (P01116 whole entry G12D): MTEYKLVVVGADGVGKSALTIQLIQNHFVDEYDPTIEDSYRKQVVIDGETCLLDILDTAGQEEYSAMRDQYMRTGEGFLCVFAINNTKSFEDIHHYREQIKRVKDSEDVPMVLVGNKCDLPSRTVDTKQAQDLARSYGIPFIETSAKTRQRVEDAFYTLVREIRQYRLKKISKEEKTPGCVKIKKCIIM
The assay is described as follows: G-LISA Ras activation, 293H cells transfected with G12D mutant. Particulars: compound 1 hour. On the procedure:
293H cells were seeded in 6-wells at 0.6×10^6 cells per well and transfected next day with 5 μg of Ras wild-type, or G12C, G12D or G12V mutant DNA plasmid vector using transfection reagent Lipofectamine 3000. Next day cells were treated with 3.125-25 μM of Ras compounds for 1 hour. Wild-type transfected cells were subsequently treated with 100 ng/ml EGF for 2 minutes. Cells were washed once in ice-cold PBS, lysed in complete lysis buffer on ice, and processed by G-LISA according to Cytoskeleton protocol.

[4] abbreviates: Ishikawa cells (K-Ras wild-type).

The structures appear in SMILES notation. Read-outs that look alike come from different tables or passages of the source.

`COc1cc(Cl)cc(CN2C(=O)CCc3cc(-c4csc(NC(=O)c5oc(C)nc5C)n4)ccc32)c1` [Compound 78]: the IC50 (in assay [1] (U87-MG K-Ras wild-type); in the assay with Panc1-G12D (Panc1 K-Ras G12D); in the assay on HCT116-G31D (HCT116 K-Ras G13D); in the assay with Panc10.05-G12D (Panc10.05 K-Ras G12D); in assay [2] (Ishikawa K-Ras wild-type); in assay [3] (HCC827 K-Ras wild-type)) was above 25 µM in each case.

With `Cc1nc(C)c(C(=O)Nc2nc(-c3ccc4c(c3)CCC(=O)N4Cc3ccc4ccccc4c3)cs2)o1` [Compound 80, 2,4-dimethyl-N-(4-(1-(naphthalen-2-ylmethyl)-2-oxo-1,2,3,4-tetrahydroquinolin-6-yl)thiazol-2-yl)oxazole-5-carboxamide], the IC50 in assay [1] (U87-MG K-Ras wild-type) was 4 µM; with Panc1-G12D (Panc1 K-Ras G12D), above 25 µM; with HCT116-G31D (HCT116 K-Ras G13D) it was 9 µM; in the assay with Panc10.05-G12D (Panc10.05 K-Ras G12D), 9 µM; in assay [2] (Ishikawa K-Ras wild-type) it was above 25 µM; in assay [3] (HCC827 K-Ras wild-type), 7 µM.

For `Cc1nc(C)c(C(=O)Nc2nc(-c3ccc4c(c3)CCC(=O)N4Cc3cccc([N+](=O)[O-])c3)cs2)o1` [Compound 87, 2,4-dimethyl-N-(4-(1-(3-nitrobenzyl)-2-oxo-1,2,3,4-tetrahydroquinolin-6-yl)thiazol-2-yl)oxazole-5-carboxamide], the IC50 is above 25 µM in assay [1] (U87-MG K-Ras wild-type); 17 µM in the assay on Panc1-G12D (Panc1 K-Ras G12D); above 25 µM in the assay with HCT116-G31D (HCT116 K-Ras G13D); 17 µM with Panc10.05-G12D (Panc10.05 K-Ras G12D); above 25 µM in assay [3] (HCC827 K-Ras wild-type).

Take `Cc1nc(C)c(C(=O)Nc2nc(-c3ccc4c(c3)CCC(=O)N4CC3CCCNC3)cs2)o1` (stereo not drawn) [Compound 88]: the IC50 in assay [1] (U87-MG K-Ras wild-type) is 19 µM; in the assay with Panc1-G12D (Panc1 K-Ras G12D), above 25 µM; in the assay on HCT116-G31D (HCT116 K-Ras G13D), 17 µM; with Panc10.05-G12D (Panc10.05 K-Ras G12D) it was 16 µM; in assay [3] (HCC827 K-Ras wild-type), 15 µM.

As for `O=C1CCc2cc(-c3csc(NC(=O)c4ccc(Cl)s4)n3)ccc2N1` [Compound 150, 5-chloro-N-(4-(2-oxo-1,2,3,4-tetrahydroquinolin-6-yl)thiazol-2-yl)thiophene-2-carboxamide], the IC50 was 8 µM in assay [1] (U87-MG cells (K-Ras wild-type)); above 25 µM against K-Ras G12D; 27 µM in the assay with Panc1-G12D (Panc1 cells (K-Ras G12D)); 27 µM in the assay with HCT116-G31D (HCT116 cells (K-Ras G13D)); 20 µM with Panc10.05-G12D (Panc10.05 cells (K-Ras G12D)); 5 µM in assay [2] (setting [4]). Besides, the IC50 in assay [3] (HCC827 cells (K-Ras wild-type)) was determined as 20 µM.

Turning to `Cc1nc(C2CCCCC2)oc1C(=O)Nc1nc(-c2ccc3c(c2)CCC(=O)N3)cs1` [Compound 11, 2-cyclohexyl-4-methyl-N-(4-(2-oxo-1,2,3,4-tetrahydroquinolin-6-yl)thiazol-2-yl)oxazole-5-carboxamide], the IC50 is above 25 µM in assay [1] (U87-MG K-Ras wild-type); above 25 µM with Panc1-G12D (Panc1 K-Ras G12D); 16 µM in the assay with HCT116-G31D (HCT116 K-Ras G13D); 16 µM in the assay with Panc10.05-G12D (Panc10.05 K-Ras G12D); 21 µM in assay [3] (HCC827 K-Ras wild-type).

On to `Cc1nc(C)c(C(=O)Nc2nc(-c3ccc4c(c3)CCC(=O)N4Cc3cccc4ccccc34)cs2)o1` [Compound 79, 2,4-dimethyl-N-(4-(1-(naphthalen-1-ylmethyl)-2-oxo-1,2,3,4-tetrahydroquinolin-6-yl)thiazol-2-yl)oxazole-5-carboxamide], for which the IC50 (in assay [1] (U87-MG K-Ras wild-type); with Panc1-G12D (Panc1 K-Ras G12D); with HCT116-G31D (HCT116 K-Ras G13D); in the assay on Panc10.05-G12D (Panc10.05 K-Ras G12D); in assay [2] (Ishikawa K-Ras wild-type); in assay [3] (HCC827 K-Ras wild-type)) was above 25 µM each time.

Turning to `O=C1CCc2cc(-c3csc(NC(=O)c4cc(Br)cs4)n3)ccc2N1` [Compound 149, 4-bromo-N-(4-(2-oxo-1,2,3,4-tetrahydroquinolin-6-yl)thiazol-2-yl)thiophene-2-carboxamide], the IC50 in assay [1] (U87-MG cells (K-Ras wild-type)) is 11 µM; with Panc1-G12D (Panc1 cells (K-Ras G12D)), above 25 µM; with HCT116-G31D (HCT116 cells (K-Ras G13D)), 28 µM; in the assay with Panc10.05-G12D (Panc10.05 cells (K-Ras G12D)) it was 22 µM; in assay [2] (setting [4]), 7 µM; in assay [3] (HCC827 cells (K-Ras wild-type)) it was 22 µM.

For `Cn1nccc1-c1csc(C(=O)Nc2nc(-c3ccc4c(c3)CCC(=O)N4)cs2)c1` [Compound 151, 4-(1-methyl-1H-pyrazol-5-yl)-N-(4-(2-oxo-1,2,3,4-tetrahydroquinolin-6-yl)thiazol-2-yl)thiophene-2-carboxamide], the IC50 came to 5 µM in assay [1] (U87-MG cells (K-Ras wild-type)); 23.5 µM on K-Ras G12D; 4 µM with Panc1-G12D (Panc1 cells (K-Ras G12D)); 2 µM with HCT116-G31D (HCT116 cells (K-Ras G13D)); 1.4 µM in the assay with Panc10.05-G12D (Panc10.05 cells (K-Ras G12D)); 1.3 µM in assay [2] (setting [4]). The IC50 in assay [3] (HCC827 cells (K-Ras wild-type)) was determined as 8 µM.

Consider `Cc1nc(C)c(C(=O)Nc2nc(-c3ccc4c(c3)CCC(=O)N4Cc3cccc4cnccc34)cs2)o1` [Compound 83, N-(4-(1-(isoquinolin-5-ylmethyl)-2-oxo-1,2,3,4-tetrahydroquinolin-6-yl)thiazol-2-yl)-2,4-dimethyloxazole-5-carboxamide], for which the IC50 in assay [1] (U87-MG K-Ras wild-type) is 3 µM; at K-Ras G12D, above 25 µM; in the assay with Panc1-G12D (Panc1 K-Ras G12D), 12 µM; in the assay with HCT116-G31D (HCT116 K-Ras G13D), 4 µM; in the assay with Panc10.05-G12D (Panc10.05 K-Ras G12D), 4 µM; in assay [2] (Ishikawa K-Ras wild-type) it was 2 µM. Further, the IC50 in assay [3] (HCC827 K-Ras wild-type) came to 6 µM.

Regarding `Cc1cc(C)c(C(=O)Nc2nc(-c3ccc4c(c3)CCC(=O)N4)cs2)cn1` [Compound 18], the IC50 is 11 µM in assay [1] (U87-MG K-Ras wild-type); 5 µM in the assay with Panc1-G12D (Panc1 K-Ras G12D); 26 µM with HCT116-G31D (HCT116 K-Ras G13D); 3 µM in the assay with Panc10.05-G12D (Panc10.05 K-Ras G12D); 2 µM in assay [2] (Ishikawa K-Ras wild-type); above 25 µM in assay [3] (HCC827 K-Ras wild-type).

Turning to `Cc1nc(-c2ccc3c(c2)OCC3)sc1C(=O)Nc1nc(-c2ccc3c(c2)CCC(=O)N3)cs1` [Compound 19, 2-(2,3-dihydrobenzofuran-6-yl)-4-methyl-N-(4-(2-oxo-1,2,3,4-tetrahydroquinolin-6-yl)thiazol-2-yl)thiazole-5-carboxamide], the IC50 in assay [1] (U87-MG K-Ras wild-type) was 4 µM; with Panc1-G12D (Panc1 K-Ras G12D), 6 µM; in the assay with HCT116-G31D (HCT116 K-Ras G13D) it was 5 µM; in the assay with Panc10.05-G12D (Panc10.05 K-Ras G12D), 2 µM; in assay [2] (Ishikawa K-Ras wild-type) it was 2 µM; in assay [3] (HCC827 K-Ras wild-type), 8 µM.

Consider `COc1cc(CN2C(=O)CCc3cc(-c4csc(NC(=O)c5oc(C)nc5C)n4)ccc32)cc(OC)c1` [Compound 77, N-(4-(1-(3,5-dimethoxybenzyl)-2-oxo-1,2,3,4-tetrahydroquinolin-6-yl)thiazol-2-yl)-2,4-dimethyloxazole-5-carboxamide], for which the IC50 (in assay [1] (U87-MG K-Ras wild-type); with Panc1-G12D (Panc1 K-Ras G12D); in the assay on HCT116-G31D (HCT116 K-Ras G13D); in the assay on Panc10.05-G12D (Panc10.05 K-Ras G12D); in assay [2] (Ishikawa K-Ras wild-type); in assay [3] (HCC827 K-Ras wild-type)) was above 25 µM in each case.

Regarding `Cc1nc(C)c(C(=O)Nc2nc(-c3ccc4c(c3)CCC(=O)N4Cc3ccc4c(c3)OCO4)cs2)o1` [Compound 74, N-(4-(1-(benzo[d][1,3]dioxol-5-ylmethyl)-2-oxo-1,2,3,4-tetrahydroquinolin-6-yl)thiazol-2-yl)-2,4-dimethyloxazole-5-carboxamide], the IC50 in assay [1] (U87-MG K-Ras wild-type) is 6 µM; on K-Ras G12D it was 22.4 µM; in the assay with Panc1-G12D (Panc1 K-Ras G12D), 11 µM; with HCT116-G31D (HCT116 K-Ras G13D) it was above 25 µM; in the assay on Panc10.05-G12D (Panc10.05 K-Ras G12D), 2 µM; in assay [2] (Ishikawa K-Ras wild-type) it was 16 µM. The compound also returned an IC50 in assay [3] (HCC827 K-Ras wild-type) above 25 µM.

Regarding `Cc1nc(C)c(C(=O)Nc2nc(-c3ccc4c(c3)CCC(=O)N4CC(O)CO)cs2)o1` (stereo not drawn) [Compound 89, N-(4-(1-(2,3-dihydroxypropyl)-2-oxo-1,2,3,4-tetrahydroquinolin-6-yl)thiazol-2-yl)-2,4-dimethyloxazole-5-carboxamide], the IC50 is 13 µM in assay [1] (U87-MG K-Ras wild-type); above 25 µM in the assay with Panc1-G12D (Panc1 K-Ras G12D); 11 µM with HCT116-G31D (HCT116 K-Ras G13D); 12 µM in the assay on Panc10.05-G12D (Panc10.05 K-Ras G12D); 12 µM in assay [3] (HCC827 K-Ras wild-type).
